Laboratory results taken from patent publication US7265103B2, “Substituted amino isoxazoline derivatives and their use as anti-depressants” (Janssen Pharmaceutica NV., priority 2002, dated 2007).
Counter-ions that a name gives are not always drawn.

Columns and labels:
hα2A receptor = molecular target: T1, hα2A receptor (Homo sapiens, UniProt P08913); experiment: Radioligand binding experiment for α2A-adrenergic receptor ([3H]-raulwolscine); settings: CHO cell membranes with human α2A receptor, [3H]raulwolscine 1 nM; read-out: pIC50 α2A (converted)
T1 construct: expressed in transfected cells; host or cells: CHO cells
T1 sequence (P08913 1-465): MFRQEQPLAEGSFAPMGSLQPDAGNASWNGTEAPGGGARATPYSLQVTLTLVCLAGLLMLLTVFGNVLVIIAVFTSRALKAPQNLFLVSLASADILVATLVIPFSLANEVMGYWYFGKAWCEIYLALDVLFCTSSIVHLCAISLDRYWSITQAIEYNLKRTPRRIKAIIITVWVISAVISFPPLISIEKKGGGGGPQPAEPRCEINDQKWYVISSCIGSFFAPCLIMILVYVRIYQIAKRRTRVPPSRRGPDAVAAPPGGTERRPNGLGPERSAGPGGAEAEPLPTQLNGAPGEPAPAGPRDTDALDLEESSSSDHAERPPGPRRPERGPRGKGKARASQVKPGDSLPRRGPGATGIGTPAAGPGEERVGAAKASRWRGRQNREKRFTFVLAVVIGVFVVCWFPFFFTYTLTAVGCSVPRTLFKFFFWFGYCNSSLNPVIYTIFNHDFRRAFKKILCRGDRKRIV
Summary of the method: (§1)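 Membranes from CHO cells stably expressing human α2A or α2C receptors (sodium butyrate-induced) incubated with 1 nM [3H]raulwolscine in 25 mM glycylglycine pH 8.0 for 60 min at 25° C, then filtered. Non-specific binding defined with 1 μM oxymetazoline (α2A) or 1 μM spiroxatrine (α2C); pIC50 from sigmoidal competition curves.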

h5-HT transporter = molecular target: T2, h5-HT transporter (Homo sapiens, UniProt P31645); experiment: Radioligand binding experiment for 5-HT transporter ([3H]paroxetine); settings: human platelet membranes, [3H]paroxetine 0.5 nM
T2 construct: Human platelet membranes (Oceanix Biosciences Corporation, Hanover, Md., USA) were thawed; tissue Oceanix Biosciences Corporation; host or cells: human platelet membranes
Summary of the method: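 Competition binding on human platelet membranes (50-100 μg protein) in 50 mM Tris-HCl, 120 mM NaCl, 5 mM KCl with 0.5 nM [3H]paroxetine, 60 min at 25 °C, filtration and scintillation counting. Non-specific binding defined with 1 μM imipramine; pIC50 from nonlinear sigmoidal fits of percent total binding.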

hα2C receptor = molecular target: T3, hα2C receptor (Homo sapiens, UniProt P18825); experiment: Radioligand binding experiment for α2C-adrenergic receptor ([3H]-raulwolscine); settings: CHO cell membranes with human α2C receptor, [3H]raulwolscine 1 nM; read-out: pIC50 α2C (converted)
T3 construct: expressed in transfected cells; host or cells: CHO cells
T3 sequence (P18825 1-462): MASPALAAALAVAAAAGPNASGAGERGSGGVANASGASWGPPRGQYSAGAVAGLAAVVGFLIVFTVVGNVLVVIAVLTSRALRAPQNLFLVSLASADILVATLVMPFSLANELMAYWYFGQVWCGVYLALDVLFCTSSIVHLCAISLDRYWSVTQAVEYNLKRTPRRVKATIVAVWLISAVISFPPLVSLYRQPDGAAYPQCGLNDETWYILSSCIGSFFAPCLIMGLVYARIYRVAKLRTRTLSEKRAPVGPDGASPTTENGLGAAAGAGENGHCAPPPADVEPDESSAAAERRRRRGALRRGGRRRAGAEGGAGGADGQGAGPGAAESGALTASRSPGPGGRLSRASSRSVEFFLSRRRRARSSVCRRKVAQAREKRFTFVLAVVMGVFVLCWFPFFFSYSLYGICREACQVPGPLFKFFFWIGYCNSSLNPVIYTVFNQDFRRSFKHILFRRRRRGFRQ
Summary of the method: as §1

T2 sequence (P31645 whole entry): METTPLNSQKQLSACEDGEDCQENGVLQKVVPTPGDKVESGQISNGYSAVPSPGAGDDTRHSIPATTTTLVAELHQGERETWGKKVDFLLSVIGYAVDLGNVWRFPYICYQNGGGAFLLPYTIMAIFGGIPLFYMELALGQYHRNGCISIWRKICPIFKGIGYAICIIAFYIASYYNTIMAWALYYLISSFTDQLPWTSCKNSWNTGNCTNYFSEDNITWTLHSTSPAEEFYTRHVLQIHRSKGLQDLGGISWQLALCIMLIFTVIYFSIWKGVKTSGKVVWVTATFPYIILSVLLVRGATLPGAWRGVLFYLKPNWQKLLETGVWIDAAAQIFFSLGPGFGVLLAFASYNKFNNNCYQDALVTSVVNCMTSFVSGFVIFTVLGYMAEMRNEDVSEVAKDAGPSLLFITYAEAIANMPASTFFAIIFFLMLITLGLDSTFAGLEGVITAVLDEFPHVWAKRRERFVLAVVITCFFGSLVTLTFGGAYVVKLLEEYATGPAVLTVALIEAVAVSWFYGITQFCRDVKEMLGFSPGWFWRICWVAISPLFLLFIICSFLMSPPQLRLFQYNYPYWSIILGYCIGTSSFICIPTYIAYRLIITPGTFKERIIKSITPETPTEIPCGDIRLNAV

Row | Structure (SMILES) | melting point [°C] | IC50 (hα2A receptor) [µM] | IC50 (h5-HT transporter) [µM] | IC50 (hα2C receptor) [µM]
1 | CNCCNc1ccc2c(c1)OCC1C2=NOC1CN1CCN(CC(C)=Cc2ccc(F)cc2)CC1 (stereo not drawn) (as salt: HCl) [Compound 20] | 199 to 235.5 | – | – | –
2 | C/C(=C\c1ccc(F)cc1)CN1CCN(CC2ON=C3c4ccc(NS(=O)(=O)c5ccc(C)cc5)cc4OCC32)CC1 (stereo not drawn) [Compound 3] | 177 to 194.1 | 0.0794 | 0.0398 | 0.0316
3 | C/C(=C\c1ccccc1)CN1CCN(CC2ON=C3c4ccc(N)cc4OCC32)CC1 (stereo not drawn) [Compound 5] | 134.1 to 136.2 | 0.00251 | 0.1 | 0.00398
4 | COc1ccc(NC(=O)Nc2ccc3c(c2)OCC2C3=NOC2CN2CCN(C/C(C)=C/c3ccccc3)CC2)cc1OC (stereo not drawn) [Compound 7] | 202.2 to 207.1 | 0.0158 | 0.0316 | 0.00501
5 | COCC(=O)N1CCOc2cc3c(cc21)OCC1C3=NOC1CN1CCN(C/C(C)=C/c2ccccc2)CC1 (stereo not drawn) [Compound 15] | 118.9 to 127.6 | 0.00316 | 0.01 | 0.000794
6 | COc1cc2c(cc1NCCN(C)C)OCC1C2=NOC1CN1CCN(CC(C)=Cc2ccc(F)cc2)CC1 (stereo not drawn) [Compound 24] | 157.7 to 159.9 | 0.0251 | 0.00501 | 0.00158
7 | COc1cc2c(cc1NCCN1CCCC1)OCC1C2=NOC1CN1CCN(CC(C)=Cc2ccccc2)CC1 (stereo not drawn) [Compound 26] | 120.4 to 123 | 0.00501 | 0.00316 | < 0.001
8 | CC(=Cc1ccccc1)CN1CCN(CC2ON=C3c4ccc(Nc5ccccc5)cc4OCC32)CC1 (stereo not drawn) [Compound 40] | 127.1 to 131.4 | 0.0158 | 0.0501 | 0.01
9 | CC(=Cc1ccccc1)CN1CCN(CC2ON=C3c4ccc(Nc5ccc(C)c(C)c5)cc4OCC32)CC1 (stereo not drawn) [Compound 46] | 138.9 to 151.3 | 0.0631 | 0.316 | 0.0398
10 | CC(=Cc1ccccc1)CN1CCN(CC2ON=C3c4ccc(NC(=O)NC(C)(C)C)cc4OCC32)CC1 (stereo not drawn) [Compound 61] | 98.4 to 113.5 | 0.00794 | 0.02 | 0.002
11 | CCOC(=O)CNC(=O)Nc1ccc2c(c1)OCC1C2=NOC1CN1CCN(CC(C)=Cc2ccccc2)CC1 (stereo not drawn) [Compound 63] | 175.3 to 177 | 0.00794 | 0.0316 | 0.00158
12 | CC(=Cc1ccccc1)CN1CCN(CC2ON=C3c4ccc(NC(=O)Nc5ccccc5)cc4OCC32)CC1 (stereo not drawn) [Compound 64] | 180.3 to 181.6 | 0.0251 | 0.251 | 0.0158
13 | CC(=Cc1ccccc1)CN1CCN(CC2ON=C3c4ccc(NC(=O)Nc5cccc(F)c5)cc4OCC32)CC1 (stereo not drawn) [Compound 65] | 186.8 to 188.5 | 0.0794 | 1.58 | 0.0316
14 | CC(=Cc1ccccc1)CN1CCN(CC2ON=C3c4ccc(N(S(C)(=O)=O)S(C)(=O)=O)cc4OCC32)CC1 (stereo not drawn) [Compound 66] | 201.8 to 202.9 | 0.00501 | 0.0398 | 0.000501
15 | CC(=Cc1ccc(F)cc1)CN1CCN(CC2ON=C3c4ccc(N5CCCCC5)cc4OCC32)CC1 (stereo not drawn) [Compound 71] | 168.2 to 169.4 | 0.0631 | 0.1 | 0.00631
16 | CCOC(=O)C1CCN(c2ccc3c(c2)OCC2C3=NOC2CN2CCN(CC(C)=Cc3ccc(F)cc3)CC2)CC1 (stereo not drawn) [Compound 72] | 156.4 to 161 | 0.1 | 0.631 | 0.02
17 | COc1cc2c(cc1N1CCN(C)CC1)OCC1C2=NOC1CN1CCN(CC(C)=Cc2ccccc2)CC1 (stereo not drawn) [Compound 75] | 142.8 to 144.4 | 0.00158 | 0.00794 | < 0.001
18 | CC(=Cc1ccc(F)cc1)CN1CCN(CC2ON=C3c4ccc(N5CCN(C)CC5)cc4OCC32)CC1 (stereo not drawn) [Compound 77] | 147.3 to 150.6 | 0.0398 | 0.00316 | 0.00251
19 | CC(=Cc1ccc(F)cc1)CN1CCN(CC2ON=C3c4ccc(N5CCN(c6ccccc6)CC5)cc4OCC32)CC1 (stereo not drawn) [Compound 79] | 203.5 to 206.2 | 0.251 | 0.2 | 0.00794

Further lines, results first:

Row | melting point [°C] | IC50 (hα2A receptor) [µM] | IC50 (h5-HT transporter) [µM] | IC50 (hα2C receptor) [µM] | Structure (SMILES)
20 | 108.9 to 114.7 | 0.0158 | 0.0316 | – | C/C(=C\c1ccccc1)CN1CCN(CC2ON=C3c4ccc(NCc5ccccc5)cc4OCC32)CC1 (stereo not drawn) [Compound 2]
21 | 121.8 to 125.9 | 0.0126 | > 1 | 0.00251 | C/C(=C\c1ccccc1)CN1CCN(CC2ON=C3c4cc(N5CCOCC5)ccc4OCC32)CC1 (stereo not drawn) [Compound 4]
22 | 112.1 to 126.7 | 0.00316 | 0.0501 | 0.00251 | CC(=O)Nc1ccc2c(c1)OCC1C2=NOC1CN1CCN(C/C(C)=C/c2ccccc2)CC1 (stereo not drawn) [Compound 6]
23 | 154.5 to 157.9 | 0.00501 | 0.00501 | 1 | COc1cc2c(cc1NCCN(C)C)OCC1C2=NOC1CN1CCN(C/C(C)=C/c2ccccc2)CC1 (stereo not drawn) [Compound 9]
24 | 98.4 to 105.3 | 0.00794 | 0.00398 | 0.002 | CNCCN(C)c1ccc2c(c1)OCC1C2=NOC1CN1CCN(CC(C)=Cc2ccc(F)cc2)CC1 (stereo not drawn) [Compound 21]
25 | 108.3 to 121.8 | 0.0631 | 0.00316 | 0.00398 | CC(=Cc1ccc(F)cc1)CN1CCN(CC2ON=C3c4ccc(NCCN5CCCC5)cc4OCC32)CC1 (stereo not drawn) [Compound 28]
26 | 125.9 to 139.7 | 0.0251 | 0.158 | 0.0251 | CC(=Cc1ccccc1)CN1CCN(CC2ON=C3c4ccc(N(C)c5ccccc5)cc4OCC32)CC1 (stereo not drawn) [Compound 41]
27 | 130.8 to 134.1 | 0.0316 | 0.126 | 0.0158 | CC(=Cc1ccccc1)CN1CCN(CC2ON=C3c4ccc(Nc5ccc(F)cc5)cc4OCC32)CC1 (stereo not drawn) [Compound 42]
28 | 131.7 to 134.5 | 0.398 | 0.631 | 0.126 | COc1ccc(Nc2ccc3c(c2)OCC2C3=NOC2CN2CCN(CC(C)=Cc3ccc(F)cc3)CC2)cc1 (stereo not drawn) [Compound 43]
29 | 152.7 to 162.6 | 0.0158 | 0.0158 | 0.02 | CC(=Cc1ccccc1)CN1CCN(CC2ON=C3c4ccc(Nc5cccc(C#N)c5)cc4OCC32)CC1 (stereo not drawn) [Compound 44]
30 | 133.3 to 148.9 | 0.02 | 0.0794 | 0.02 | CC(=Cc1ccccc1)CN1CCN(CC2ON=C3c4ccc(Nc5ccccc5C)cc4OCC32)CC1 (stereo not drawn) [Compound 45]
31 | 183.4 to 190.2 | 0.00316 | 0.0158 | 0.001 | CC(=Cc1ccccc1)CN1CCN(CC2ON=C3c4ccc(NC(=O)C(C)(C)C)cc4OCC32)CC1 (stereo not drawn) [Compound 50]
32 | 136.1 to 172.9 | 0.00158 | 0.0251 | 0.000794 | C=CC(=O)Nc1ccc2c(c1)OCC1C2=NOC1CN1CCN(CC(C)=Cc2ccccc2)CC1 (stereo not drawn) [Compound 54]
33 | 121.1 to 136.5 | 0.0251 | 0.0398 | 0.00631 | CC(=Cc1ccccc1)CN1CCN(CC2ON=C3c4ccc(NC(=O)NC5CCCCC5)cc4OCC32)CC1 (stereo not drawn) [Compound 62]
34 | 194.7 to 204.9 | 0.0126 | 0.1 | 0.00794 | CC(=Cc1ccc(F)cc1)CN1CCN(CC2ON=C3c4ccc(N5CCCC5)cc4OCC32)CC1 (stereo not drawn) [Compound 70]
